The text below walks through data of patent US12350262B2, “Methods of treatment for cystic fibrosis” (Vertex Pharmaceuticals Incorporated, priority 2017, dated 2025).

SMILES strings stand for the structures. A value given as a limit tells only on which side of the number the result lay.

One may read the EC50 as the midpoint of the concentration-response curve. Lower therefore signals a more potent agent.

In data set [1] the target is T1, F508del CFTR in NIH3T3 cells (Homo sapiens, UniProt P13569, DEL508-508).
T1 construct: expressed in transfected cells
Kind of data set: Membrane potential optical assay (correction assay). In kind it is cell-based. The text has this: An optical assay was employed to measure changes in membrane potential to determine the CFTR modulator properties of compounds. The assay utilized fluorescent voltage sensing dyes to measure changes in membrane potential using a fluorescent plate reader (e.g., FLIPR III, Molecular Devices, Inc.) as a readout for increase in functional F508del in NIH 3T3 cells. The driving force for the response was the creation of a chloride ion gradient in conjunction with channel activation and concurrent with compound treatment by a single liquid addition step after the cells had previously been loaded with a voltage sensing dye.
NIH3T3 mouse fibroblasts stably expressing F508del were used for optical measurements of membrane potential. The cells were maintained at 37° C. in 5% CO2 and 90% humidity in Dulbecco's modified Eagle's medium supplemented with 2 mM glutamine, 10% fetal bovine serum, 1×NEAA, P-ME, 1× pen/strep, and 25 mM HEPES in 175 cm^2 culture flasks. For all optical assays, the cells were seeded at 12,000 cells/well in 384-well matrigel-coated plates. […] The cells were then activated and treated with Compound I. After 18-24 hours, fluorescence from the voltage sensing dye in the cells was measured to assess changes in the membrane potential as a read out for increase in functional F508del CFTR in the NIH3T3 cells.

For data set [2], the target named is T2, F508del-CFTR in human bronchial epithelial (HBE) cells (Homo sapiens, UniProt P13569, DEL508-508).
T2 construct: Non-CF and CF airway epithelia were isolated from bronchial tissue; endogenous in cells; host or cells: primary CF human bronchial epithelial (HBE) cells
Kind of data set: Ussing chamber assay. It counts as cell-based. The settings on record: chloride current. The protocol:
Ussing chamber experiments were performed on polarized airway epithelial cells expressing F508del to further characterize the F508del modulators identified in the optical assay above. Non-CF and CF airway epithelia were isolated from bronchial tissue, cultured using methods well known in the art, and plated onto Costar® Snapwell™ filters that were precoated with NIH3T3-conditioned media. After four days the apical media was removed and the cells were grown at an air liquid interface for >14 days prior to use. […] CF-HBE cells were isolated from patients homozygous for F508del (F508del/F508del-HBE) or heterozygous for F508del with a different disease causing mutation on the other allele.
HBE cells grown on Costar® Snapwell™ cell culture inserts were mounted in an Ussing chamber (Physiologic Instruments, Inc., San Diego, CA), and the transepithelial resistance and short-circuit current in the presence of a basolateral to apical Cl^− gradient (ISC) were measured using a voltage-clamp system (Department of Bioengineering, University of Iowa, IA). Briefly, HBE cells were examined under voltage-clamp recording conditions (Vhold=0 mV) at 37° C. […]
A basolateral to apical membrane Cl^− concentration gradient was set up as follows. […] Chloride current was measured to assess the increase in functional CFTR in the cell membrane.

Data set [3] in a line: Rat pharmacokinetics, single IV and PO dose. It counts as in vivo, male Sprague Dawley rats. The settings on record: single nominal oral dose 3 mg/kg. Here is the method:
Compound 1 was also administered to male Sprague Dawley rats at single nominal oral dose (PO) of 3 mg/kg as a solution in 5% NMP, 30% PEG400, 10% TPGS, 5% PVP-K30 at 5 mL/kg dose volume.
The study design, sample tracking, data run design and individual plasma sample concentrations were stored using Watson LIMS software, Version 7.4.2 (Thermo Scientific Inc, Waltham, MA). Plasma concentration-time profiles of Compound 1 in Sprague Dawley rats at scheduled (nominal) sampling times were analyzed by noncompartmental pharmacokinetic methods using PK function within Watson LIMS software, Version 7.4.2 (Thermo Scientific Inc, Waltham, MA). Key pharmacokinetic parameters such as “area under the curve” (AUC), from the time of drug administration, time zero, extrapolated to infinity, clearance (CL), and Percent of oral bioavailability (% F) were determined. The AUC values were calculated using the linear trapezoidal rule.

The subject of data set [4] is healthy subjects. Description: Safety and Efficacy Study 1, Part 1 with healthy subjects. In kind it is in vivo, human. To be noted: interim data.

T2 sequence (P13569 with tags, fused parts or gaps DEL508-508): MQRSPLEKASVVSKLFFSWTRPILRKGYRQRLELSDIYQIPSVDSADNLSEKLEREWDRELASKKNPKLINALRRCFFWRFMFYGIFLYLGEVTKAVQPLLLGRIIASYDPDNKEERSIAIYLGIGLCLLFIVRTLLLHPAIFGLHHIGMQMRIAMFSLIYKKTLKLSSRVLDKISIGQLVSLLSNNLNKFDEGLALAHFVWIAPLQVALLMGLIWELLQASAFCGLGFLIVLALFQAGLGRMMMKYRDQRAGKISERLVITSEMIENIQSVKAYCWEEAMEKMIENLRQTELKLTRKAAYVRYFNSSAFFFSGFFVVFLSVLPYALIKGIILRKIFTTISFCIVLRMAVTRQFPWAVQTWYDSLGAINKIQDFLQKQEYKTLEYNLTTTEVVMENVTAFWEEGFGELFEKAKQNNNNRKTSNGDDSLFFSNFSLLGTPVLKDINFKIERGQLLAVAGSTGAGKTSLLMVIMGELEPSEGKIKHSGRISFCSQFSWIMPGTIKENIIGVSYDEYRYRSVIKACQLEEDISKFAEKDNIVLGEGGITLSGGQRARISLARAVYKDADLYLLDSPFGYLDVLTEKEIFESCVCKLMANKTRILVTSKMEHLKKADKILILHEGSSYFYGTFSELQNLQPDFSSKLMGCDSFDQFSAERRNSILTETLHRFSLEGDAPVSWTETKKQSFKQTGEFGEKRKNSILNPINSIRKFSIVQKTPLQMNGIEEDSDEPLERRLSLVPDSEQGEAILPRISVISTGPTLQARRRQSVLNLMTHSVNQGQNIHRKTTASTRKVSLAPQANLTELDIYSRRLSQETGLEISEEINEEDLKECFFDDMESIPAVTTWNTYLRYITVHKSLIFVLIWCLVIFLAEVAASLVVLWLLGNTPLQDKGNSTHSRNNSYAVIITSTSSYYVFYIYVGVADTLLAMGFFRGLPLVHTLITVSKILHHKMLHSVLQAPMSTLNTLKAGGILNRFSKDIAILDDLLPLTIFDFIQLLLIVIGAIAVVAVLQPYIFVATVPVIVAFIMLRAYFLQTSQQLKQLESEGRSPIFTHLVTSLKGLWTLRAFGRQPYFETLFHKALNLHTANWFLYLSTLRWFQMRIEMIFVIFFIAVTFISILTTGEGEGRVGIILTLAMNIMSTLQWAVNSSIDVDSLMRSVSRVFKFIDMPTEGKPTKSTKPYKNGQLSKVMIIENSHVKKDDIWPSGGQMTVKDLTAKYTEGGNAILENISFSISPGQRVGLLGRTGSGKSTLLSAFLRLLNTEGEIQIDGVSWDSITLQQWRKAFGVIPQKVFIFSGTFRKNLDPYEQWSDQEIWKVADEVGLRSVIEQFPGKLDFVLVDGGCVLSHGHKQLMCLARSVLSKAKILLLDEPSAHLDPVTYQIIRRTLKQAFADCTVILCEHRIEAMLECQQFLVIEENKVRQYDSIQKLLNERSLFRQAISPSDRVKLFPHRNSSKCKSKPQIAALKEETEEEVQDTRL
T1 sequence (P13569 with tags, fused parts or gaps DEL508-508): as above

Consider `Cc1nn(C)cc1S(=O)(=O)NC(=O)c1ccc(-n2ccc(OCC(C)(C)C(F)(F)F)n2)nc1N1C[C@@H](C)CC1(C)C` [Compound I, N-(1,3-dimethylpyrazol-4-yl)sulfonyl-6-[3-(3,3,3-trifluoro-2,2-dimethyl-propoxy)pyrazol-1-yl]-2-[(4S)-2,2,4-trimethylpyrrolidin-1-yl]pyridine-3-carboxamide], for which the Emax in data set [1] (NIH3T3, relative to Compound II, read-out: % Efficacy) is at least 100%. Also, the half-maximal effective concentration (EC50) in data set [1] (NIH3T3 cells expressing F508del, 18-24 hours treatment) is under 3000 nM; in data set [2], under 2000 nM. Also, the “HBE Max Eff” value in data set [2] is given as “+++ (means >100%)”. In data set [3], the “Rat PO AUC/dose” value is 9.4 ± 0.7 µg·h/mL/mg/kg. Further, the safety and tolerability entry in data set [4] (multiple doses up to 340 mg for 10 days) is “safe and well tolerated”; in data set [4] (single doses up to 360 mg), “safe and well tolerated”.
